ChEMBL document CHEMBL1133231, “Syntheses and binding affinities of 6-nitroquipazine analogues for serotonin transporter. Part 1” (Bioorg Med Chem Lett, 2000)

What follows are compounds tested against Sodium-dependent serotonin transporter (Rattus norvegicus, UniProt P31652) (assay: Inhibition of [3H]citalopram binding to Serotonin transporter of rat cerebral cortex).
Format: tissue-based

Chain of Sodium-dependent serotonin transporter (P31652 whole entry): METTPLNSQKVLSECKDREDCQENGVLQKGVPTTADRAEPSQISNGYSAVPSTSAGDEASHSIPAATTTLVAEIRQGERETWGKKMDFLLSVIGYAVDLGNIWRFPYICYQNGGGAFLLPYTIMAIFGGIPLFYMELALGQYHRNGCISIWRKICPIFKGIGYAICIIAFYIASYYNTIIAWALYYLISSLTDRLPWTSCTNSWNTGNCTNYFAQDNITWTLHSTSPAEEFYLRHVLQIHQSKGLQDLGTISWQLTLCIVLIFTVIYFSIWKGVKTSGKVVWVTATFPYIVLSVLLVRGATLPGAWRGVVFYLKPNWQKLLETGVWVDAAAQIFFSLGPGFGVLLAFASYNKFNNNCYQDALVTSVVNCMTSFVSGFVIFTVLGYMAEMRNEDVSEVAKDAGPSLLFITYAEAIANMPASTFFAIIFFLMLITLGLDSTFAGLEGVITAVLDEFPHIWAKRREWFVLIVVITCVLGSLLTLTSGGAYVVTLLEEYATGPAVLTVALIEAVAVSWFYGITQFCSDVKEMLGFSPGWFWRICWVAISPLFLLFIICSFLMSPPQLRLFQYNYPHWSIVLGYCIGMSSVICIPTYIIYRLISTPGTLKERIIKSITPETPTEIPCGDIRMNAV

Row | SMILES | Ki
1 | O=[N+]([O-])c1cc([N+](=O)[O-])c2nc(N3CCNCC3)ccc2c1 | 313 nM
2 | NCCNc1ccc2cc([N+](=O)[O-])ccc2n1 | 164 nM
3 | c1ccc2nc(N3CCNCC3)ccc2c1 [QUIPAZINE] | 63 nM
